Data on one substance can be found in patent US20240033237A1, “USE OF A-KETOGLUTARATE IN MANUFACTURE OF MEDICAMENT” (TONGJI UNIVERSITY, priority 2019, published 2024).

The subject of the experiment is chondrocytes. In words: Amino acid content in chondrocytes upon IL-1β stimulation, LC-MS. As to conditions: IL-1β treatment for 36 h, untreated 8740.24±584.31. Format: cell-based, mouse. The protocol: Mouse chondrocytes were obtained from 7-day-old C57BL/6 mice (Shanghai Slac laboratory animal Co., Ltd.), and the procedure was as follows: under aseptic surgical conditions, bilateral knee cartilages of C57 mice were carefully stripped and digested with 0.2% neutral collagenase (Serva, Germany) for 8 h; cell precipitates were obtained by centrifugation, and the cells were resuspended in modified Eagle medium (DMEM) (Gibco, USA) containing 10% FBS, inoculated in culture dishes, and cultured with high-sugar DMEM medium (containing 10% FBS, 100 U/mL penicillin and 100 mg/L streptomycin) at 37° C. in a 5% CO2 constant temperature incubator. The medium was changed for the first time at 48 h. […] The cells were collected by centrifugation and resuspended, and the concentration was adjusted for inoculation in culture dishes. The cells were subcultured by the above method, and the obtained cells were labeled as P1, P2, P3 generations, etc. […]
After being treated with IL-1β for 36 h, the chondrocytes were scraped off, and the changes of amino acid content in the chondrocytes were detected by LC-MS.

Consider “IL-1β: interleukin-1β used to stimulate chondrocytes”, for which the “Gln content in chondrocytes” value was found to be 330±150.32 ng/10^7.
